# PMC11767929 (Molecules, 2025)
# Like-named read-outs stand apart in the source and are kept apart here.
# Columns and labels:
# Format in all cases: cell-based
# [1] = test system: NHDF-Neo (normal human dermal fibroblast-neonatal cells); assay: MTT cytotoxicity assay, NHDF-Neo healthy cells; conditions: read-out: IC50 NHDF-Neo
# Protocol: (§1) Cytotoxicity screening of the obtained glycoconjugates, their potential metabolites, and substrates used for their synthesis was conducted using the MTT assay.
# (§2) All cells were kept in a humidified incubator at 37 °C in a 5% CO2 atmosphere.
# (§3) Cell viability was assessed by the MTT (3-[4,5–dimethylthiazol-2-yl]-2,5-diphenyltetrazolium bromide) test (ACROS Organics). Stock solutions of tested compounds were prepared in DMSO and stored accordingly.
# (§4) Cells treated with glycoconjugates or potential metabolites were incubated for another 24–72 h (depending on the cell line). Subsequently, 50 µL MTT solution (0.5 mg/mL) in RPMI medium without Phenol Red was added to each well. After 3 h of incubation, the MTT solution was removed, and the precipitated formazan was dissolved in 100 µL of DMSO. Finally, the absorbance of the solubilized formazan crystals was measured at the 570 nm wavelength. Each experiment was carried out in three independent iterations with four technical repetitions. […] Cell viability was expressed as:Cell viability (%) = (ODsample − ODblank)/(ODcontrol − ODblank) × 100%.
# [2] = test system: HCT 116 (human colorectal cancer cell line); assay: MTT cytotoxicity assay, HCT 116 cells; conditions: for IC50: read-out: IC50 HCT 116; for SI (HCT 116): selectivity index: ratio of IC50 NHDF-Neo to IC50 HCT 116
# Protocol: as §1, §2, §3, §4
# [3] = test system: MCF-7 (human breast adenocarcinoma cell line); assay: MTT cytotoxicity assay, MCF-7 cells; conditions: for IC50: Homo sapiens, read-out: IC50 MCF-7; for SI (MCF-7): selectivity index: ratio of IC50 NHDF-Neo to IC50 MCF-7
# Protocol: as §1, §2, §3, §4
# [4] = test system: NHDF-Neo (normal human dermal fibroblast-neonatal cells); assay: MTT assay in medium with 20 µM CuCl2, NHDF-Neo cells; conditions: addition of CuCl2 at 20 µM, 24 h, read-out: IC50 NHDF-Neo + Cu2+
# Protocol: (§5) Therefore, it seemed reasonable to conduct additional experiments for the glycoconjugates for which the likely mechanism of action is based on the chelation of metal ions. Since copper can be toxic to cells, it was necessary to test the toxicity of different concentrations of copper salt on the proliferation of all cell line types. Cell cultures under standard conditions were treated with copper solutions of various concentrations, and their effect on cell proliferation was verified by the MTT assay. Cells with the non-supplemented medium were used as a reference for 100% cell viability. […] The antiproliferative activities of 8-AQ glycoconjugates were further tested in the presence of the addition of Cu^2+ ions. HCT 116, MCF-7, and NHDF-Neo cells were treated with solutions of glycoconjugates 13–18 in a culture medium supplemented with 20 µM copper chloride, and their proliferation was measured using the MTT assay. The control consisted of cells cultured in a medium with the same concentration of copper salt added. […] This effect was more pronounced for the MCF-7 cell line (Figure 2). A significant decrease in MCF-7 cell proliferation was observed after treatment with glycoconjugates at concentrations of 100 µM and 50 µM in the presence of Cu^2+ compared to treatment with glycoconjugates alone (cell viability 2–23% and 6–79%, respectively, for each glycoconjugate concentration).
# (§6) Cells were seeded in 96-well plates at a concentration of 1 × 10^4 (HCT 116, NHDF-Neo) or 5 × 10^3 (MCF-7) per well. Cell cultures were incubated for 24 h at 37 °C in a humidified atmosphere with 5% CO2. The culture medium was then removed and replaced with 100 µL of the tested compounds solution at varying concentrations (from 25 µM to 200 µM) in the medium with the addition of CuCl2. The final concentration of CuCl2 was 20 µM in each well. Following 24 or 72 h of incubation, the MTT assay was performed to assess cell viability.
# [5] = test system: HCT 116 (human colorectal cancer cell line); assay: MTT assay in medium with 20 µM CuCl2, HCT 116 cells; conditions: addition of CuCl2 at 20 µM; for IC50: Homo sapiens, HCT-116, MTT assay, 24 h, read-out: IC50 HCT 116 + Cu2+; for SI (HCT 116) + Cu2+: ratio of IC50 NHDF-Neo to IC50 HCT 116
# Protocol: as §5, §6
# [6] = test system: MCF-7 (human breast adenocarcinoma cell line); assay: MTT assay in medium with 20 µM CuCl2, MCF-7 cells; conditions: for IC50: Homo sapiens, MCF7, MTT assay, 72 h, read-out: IC50 MCF-7 + Cu2+; for IC50 / SI (MCF-7) + Cu2+: addition of CuCl2 at 20 µM; for increase of cytotoxicity in the presence of Cu(II) ions versus without copper: MCF-7 cells, 20 µM CuCl2; for SI (MCF-7) + Cu2+: ratio of IC50 NHDF-Neo to IC50 MCF-7
# Protocol: as §5, §6
# [7] = MTT assay, incubation time 24 h
# [8] = Homo sapiens, HCT-116, 24 h, MTT assay, incubation time 24 h
# [9] = MCF7, MTT assay, incubation time 72 h
Compound,SI (HCT 116) [2],SI (MCF-7) [3],"IC50 [1, 7]","IC50 [2, 8]","IC50 [3, 9]",further results
"Nc1cccc2cccnc12 [Compound 1, 8-Aminoquinoline, reference compound]",,,,,,"IC50 ([1]; 24 h): > 800 µM; IC50 ([2]; Homo sapiens, HCT-116, 24 h): > 800 µM; IC50 ([3]; MCF7, 72 h): > 400 µM"
"Oc1cccc2cccnc12 [Compound 2, 8-hydroxyquinoline, reference compound]",1,3.1,,,,"IC50 ([1]; 24 h): 9.34 ± 0.25 µM; IC50 ([2]; Homo sapiens, HCT-116, 24 h): 9.33 ± 0.22 µM; IC50 ([3]; MCF7, 72 h): 3.01 ± 0.05 µM"
"C#CCNc1cccc2cccnc12 [Compound 3, N-(prop-2-yn-1-yl)quinolin-8-amine]",,,> 800 µM,550 ± 16.4 µM,295 ± 8.49 µM,
"[N-]=[N+]=NCCCNc1cccc2cccnc12 [Compound 5, N-(3-azidopropyl)quinolin-8-amine]",,,415 ± 10.6 µM,115 ± 13.4 µM,47.1 ± 8.49 µM,
"[N-]=[N+]=NCCCOc1cccc2cccnc12 [Compound 6, 8-(3-azidopropoxy)quinoline]",,,,,,IC50 ([1]; 24 h): 782 ± 8.7 µM
"CC(=O)OC[C@H]1O[C@@H](N=[N+]=[N-])[C@H](OC(C)=O)[C@@H](OC(C)=O)[C@@H]1OC(C)=O [Compound 7, 2,3,4,6-tetra-O-acetyl-β-D-glucopyranosyl azide]",,,> 800 µM,> 800 µM,> 800 µM,
"CC(=O)OC[C@H]1O[C@@H](N=[N+]=[N-])[C@H](OC(C)=O)[C@@H](OC(C)=O)[C@H]1OC(C)=O [Compound 8, 2,3,4,6-tetra-O-acetyl-β-D-galactopyranosyl azide]",,,> 800 µM,> 800 µM,> 800 µM,
"CC(=O)OC[C@H]1O[C@@H](OCCN=[N+]=[N-])[C@H](OC(C)=O)[C@@H](OC(C)=O)[C@@H]1OC(C)=O [Compound 9, 2-azidoethyl 2,3,4,6-tetra-O-acetyl-β-D-glucopyranoside]",,,> 800 µM,> 800 µM,> 800 µM,
"CC(=O)OC[C@H]1O[C@@H](OCCN=[N+]=[N-])[C@H](OC(C)=O)[C@@H](OC(C)=O)[C@H]1OC(C)=O [Compound 10, 2-azidoethyl 2,3,4,6-tetra-O-acetyl-β-D-galactopyranoside]",,,> 800 µM,> 800 µM,> 800 µM,
"C#CCO[C@@H]1O[C@H](COC(C)=O)[C@@H](OC(C)=O)[C@H](OC(C)=O)[C@H]1OC(C)=O [Compound 11, propargyl 2,3,4,6-tetra-O-acetyl-β-D-glucopyranoside]",,,> 800 µM,> 800 µM,> 800 µM,
"C#CCO[C@@H]1O[C@H](COC(C)=O)[C@H](OC(C)=O)[C@H](OC(C)=O)[C@H]1OC(C)=O [Compound 12, propargyl 2,3,4,6-tetra-O-acetyl-β-D-galactopyranoside]",,,> 800 µM,> 800 µM,> 800 µM,
CC(=O)OC[C@H]1O[C@@H](n2cc(CNc3cccc4cccnc34)nn2)[C@H](OC(C)=O)[C@@H](OC(C)=O)[C@@H]1OC(C)=O [Compound 13],,,> 800 µM,> 800 µM,> 800 µM,CC50 [4]: > 200 µM; IC50 [5]: 118 ± 5 µM; SI (HCT 116) + Cu2+ [5]: >1.7; IC50 [6]: 71.3 ± 4.5 µM; increase of cytotoxicity in the presence of Cu(II) ions versus without copper [6]: more than ten times; SI (MCF-7) + Cu2+ [6]: >2.8
"CC(=O)OC[C@H]1O[C@@H](n2cc(COc3cccc4cccnc34)nn2)[C@H](OC(C)=O)[C@@H](OC(C)=O)[C@@H]1OC(C)=O [Compound 13a, reference compound]",0.8,1.0,57.4 ± 3.2 µM,69 ± 2.5 µM,57.7 ± 3.3 µM,
CC(=O)OC[C@H]1O[C@@H](n2cc(CNc3cccc4cccnc34)nn2)[C@H](OC(C)=O)[C@@H](OC(C)=O)[C@H]1OC(C)=O [Compound 14],>2.8,>3.9,> 800 µM,282 ± 20.7 µM,204.2 ± 1.4 µM,CC50 [4]: > 200 µM; IC50 [5]: 87.1 ± 15.9 µM; IC50 [6]: 34.7 ± 5 µM; increase of cytotoxicity in the presence of Cu(II) ions versus without copper [6]: approximately six-fold; SI (MCF-7) + Cu2+ [6]: >5.8
"CC(=O)OC[C@H]1O[C@@H](n2cc(COc3cccc4cccnc34)nn2)[C@H](OC(C)=O)[C@@H](OC(C)=O)[C@H]1OC(C)=O [Compound 14a, reference compound]",1.4,7.8,31.9 ± 1.6 µM,22.7 ± 1.6 µM,4.1 ± 0.03 µM,
CC(=O)OC[C@H]1O[C@@H](OCCn2cc(CNc3cccc4cccnc34)nn2)[C@H](OC(C)=O)[C@@H](OC(C)=O)[C@@H]1OC(C)=O [Compound 15],>2.8,>7.8,> 800 µM,284.2 ± 2.3 µM,103 ± 5.7 µM,CC50 [4]: > 200 µM; IC50 [5]: 80.5 ± 2.2 µM; SI (HCT 116) + Cu2+ [5]: >2.5; IC50 [6]: 34.1 ± 5 µM; SI (MCF-7) + Cu2+ [6]: >5.9
CC(=O)OC[C@H]1O[C@@H](OCCn2cc(CNc3cccc4cccnc34)nn2)[C@H](OC(C)=O)[C@@H](OC(C)=O)[C@H]1OC(C)=O [Compound 16],>2.7,,> 800 µM,227 ± 6.3 µM,227 ± 6.3 µM,"CC50 [4]: > 200 µM; IC50 [2, 7]: 290 ± 9.7 µM; IC50 [5]: 70.8 ± 3.9 µM; SI (HCT 116) + Cu2+ [5]: >2.8; IC50 [6]: 31.8 ± 4.9 µM; increase of cytotoxicity in the presence of Cu(II) ions versus without copper [6]: approximately six-fold; SI (MCF-7) + Cu2+ [6]: >6.3"
CC(=O)OC[C@H]1O[C@@H](OCc2cn(CCCNc3cccc4cccnc34)nn2)[C@H](OC(C)=O)[C@@H](OC(C)=O)[C@@H]1OC(C)=O [Compound 17],3.6,5.3,416 ± 12.4 µM,116 ± 5.9 µM,78.1 ± 9.3 µM,CC50 [4]: > 200 µM; IC50 [5]: 71.9 ± 1.7 µM; SI (HCT 116) + Cu2+ [5]: >2.8; IC50 [6]: 34.8 ± 0.7 µM; SI (MCF-7) + Cu2+ [6]: >5.7
CC(=O)OC[C@H]1O[C@@H](OCc2cn(CCCNc3cccc4cccnc34)nn2)[C@H](OC(C)=O)[C@@H](OC(C)=O)[C@H]1OC(C)=O [Compound 18],3.2,6.0,585 ± 7.1 µM,182 ± 15.6 µM,96.8 ± 6 µM,CC50 [4]: > 200 µM; IC50 [5]: 43.4 ± 2.4 µM; SI (HCT 116) + Cu2+ [5]: >4.6; IC50 [6]: 35.4 ± 0.1 µM; SI (MCF-7) + Cu2+ [6]: >5.6
OCCn1cc(CNc2cccc3cccnc23)nn1 [Compound 19],>1.2,>6.9,> 800 µM,,116 ± 2.7 µM,
"OCCn1cc(COc2cccc3cccnc23)nn1 [Compound 19a, reference compound]",,,> 800 µM,> 800 µM,> 800 µM,
"OCc1cn(CCCNc2cccc3cccnc23)nn1 [Compound 20, 4-Hydroxymethyl-1-(8-quinolinylaminopropyl)-1H-1,2,3-triazol]",>2.4,>5.3,> 800 µM,329 ± 5.4 µM,150 ± 1.8 µM,
"OCc1cn(CCCOc2cccc3cccnc23)nn1 [Compound 20a, reference compound]",,>1.3,> 800 µM,> 800 µM,602.9 ± 1.9 µM,
